Measurements from US6388122B1, “Tryptase inhibitor and novel guanidino derivatives” (Ono Pharmaceutical Co., Ltd., priority 1996, dated 2002).
Where a name gives a salt, the structure may show the parent alone.

Columns and labels:
[1] = target: T1, trypsin (derived from bovine pancreas) (Bos taurus, UniProt P00760); test: Trypsin inhibitory activity (BAPNA absorbance); assay type: biochemical; details: substrate BAPNA, pH 8.0, 30° C.
T1 construct: trypsin (derived from bovine pancreas); from tissue; host or cells: bovine pancreas
T1 sequence (P00760 24-246): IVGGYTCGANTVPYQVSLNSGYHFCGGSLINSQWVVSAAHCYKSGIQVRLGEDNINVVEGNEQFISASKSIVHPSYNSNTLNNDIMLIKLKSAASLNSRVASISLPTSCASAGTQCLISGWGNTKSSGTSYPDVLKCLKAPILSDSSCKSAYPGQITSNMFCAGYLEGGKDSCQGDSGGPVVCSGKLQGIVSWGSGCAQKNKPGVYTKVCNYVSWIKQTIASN
Protocol: To 0.2 M HEPES/sodium hydroxide buffer (pH 8.0, 100 μl) and distilled water (640 μl) were added the subject compound in various concentrations or water (10 μl) and a 80 mU/ml trypsin (derived from bovine pancreas) solution (50 μl), and the resulting mixture was allowed to preincubation at 30° C. for a minute. To the resulting reaction mixture, 2.5 mM BAPNA (200 μl) was added, incubation was made at 30° C., and the absorbance at 405 nm was determined. The absorbance in the absence of the subject compound was defined as 100% to obtain the percentage (%) in the existence of the sample compound and calculate the value of IC50.

[2] = target: T2, Tryptase purified from the human lungs; test: Tryptase inhibitory activity (Boc-Phe-Ser-Arg-MCA fluorescence); assay type: biochemical; details: human lung tryptase, pH 7.5, 37° C., 5 minutes incubation, substrate Boc-Phe-Ser-Arg-MCA
T2 construct: Tryptase was purified from the human lungs in accordance with the method of T. J. Smithetal. described in J. Biol. Chem., 259, 11046 (1984)
Protocol: Tryptase was purified from the human lungs in accordance with the method of T. J. Smithetal. described in J. Biol. Chem., 259, 11046 (1984). The enzyme purified in the concentration of 25.7 U/ml was diluted 10 times with 100 mM Tris/hydrochloride buffer (pH 7.5) at use. The enzyme solution prepared above (5 μl) was mixed with 100 mM Tris/hydrochloride buffer (pH 7.5, 500 μl) and the aqueous solution of the subject compound in various concentrations or water (5 μl), and the resulting mixture was incubated at 37° C. for 5 minutes. To the reaction mixture was added 20 mM Boc-Phe-Ser-Arg-MCA (2.5 μl), and elevation in fluorescence for a minute was determined at Ex=370 nm, Em=460 nm. The elevation in fluorescence in the absence of the subject compound was defined as 100% to obtain the percentage (%) in the existence of the sample compound and calculate the value of IC50.

[3] = target: T3, PLA2 (derived from pig pancreas) (Sus scrofa, UniProt P00592); test: PLA2 inhibitory activity (10PY-PC fluorescence); assay type: biochemical; details: pig pancreas PLA2, substrate 10PY-PC, pH 7.5
T3 construct: PLA2 (derived from pig pancreas); from tissue; host or cells: pig pancreas
Protocol: A reaction mixture was prepared which contained 50 mM Tris/hydrochloride buffer (pH 7.5, 874 μl: 100 mM sodium chloride and 1 mM EDTA contained), 1 M calcium chloride (6 μl), 1% bovine serum albumin (10 μl) and 2.5 mM 10PY-PC (10 μl). To the reaction mixture were added the subject compound in various concentrations or water (50 μl) and a 10 mU/ml PLA2 (derived from pig pancreas) solution (50 μl), and the intensity of fluorescence was determined at Ex=345 nm and Em=396 nm. The intensity of fluorescence in the absence of the subject compound was defined as 100% to obtain the percentage (%) In the existence of the sample compound and calculate the value of IC50.

[4] = test system: carbon tetrachloride-induced rat chronic hepatopathy; test: Effect on carbon tetrachloride-induced rat chronic hepatopathy; assay type: in vivo; details: 3 mg/kg oral once a day for 8 weeks starting 5 weeks after carbon tetrachloride, liver taken at 12 weeks
Protocol: Carbon tetrachloride (1.5 mg/kg) was repeatedly given to rats by subctaneous administration twice a week for 12 weeks to induce impairment. The liver was taken out 12 weeks after inducing, the effect on hepatic fibrogenesis was evaluated using the hepatic […] content as the indication. The aqueous solution of the subject compound in concentration of 3 mg/kg was repeatedly given by oral administeration once a day for 8 weeks, initially administered 5 weeks after the administration of carbon tetrachloride.

[5] = Toxicity (LD50, intravenous, male mice); details: mouse, in vivo, intravenously administered to male mice
Text: Extremely low toxicity has been confirmed in each of the active ingredients and nontoxic salts and nontoxic acid addition salts thereof encompassed in the present invention. […] Accordingly, any of the active substances encompassed in the present invention can be considered to be adequately safe and suitable for use as pharmaceuticals.

[6] = test system: bleomycin-induced rat pulmonary fibrosis; test: Effect on bleomycin-induced rat pulmonary fibrosis; assay type: in vivo; details: 10 mg/kg oral once a day for 14 days, lungs taken 15 days after bleomycin
Protocol: Under anesthetization with pentobarbital, bleomycin hydrochloride (0.9 mg/0.3 ml) was given to rats by endotracheal administration to induce impairment. The lungs were taken out 15 days after inducing, the effect on pulmonary fibrogenesis was evaluated using the pulmonary […] content as the indication. The aqueous solution of the subject compound In concentration of 10 mg/kg was repeatedly given by oral administeration once a day for 14 days, initially administered 10 hours after the administration of bleomycin.

T3 sequence (P00592 23-146): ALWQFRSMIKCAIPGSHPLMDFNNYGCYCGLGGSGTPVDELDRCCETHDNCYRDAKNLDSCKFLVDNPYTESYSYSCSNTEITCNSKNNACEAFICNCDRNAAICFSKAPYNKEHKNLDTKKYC

Compound | IC50 [2] | further results
CCOC(=O)C1CCCCN1C(=O)/C=C/c1ccc(C(=O)Oc2ccc(NC(=N)N)cc2)cc1 (stereo not shown) [Acetate of compound 7, p-(p-Guanidinophenoxycarbonyl)cinnamic Acid N-(2-ethoxcarbonyl)piperidlnylamide acetate] |  | IC50 [1]: 180 nM
CCOC(=O)[C@@H]1CCCN1C(=O)/C=C/c1ccc(C(=O)Oc2ccc(NC(=N)N)cc2)cc1 [Acetate of compound 10, p-(p-Guanidinophenoxycarbonyl)cinnamic Acid N-(2-(S)-ethoxycarbonyl)pyrrolidinylamide Acetate] |  | IC50 [1]: 180 nM
C=CCN(CC(=O)OCC)C(=O)/C(C)=C/c1ccc(C(=O)Oc2ccc(NC(=N)N)cc2)cc1 [Acetate of compound 13, p-(p-Guanidinophenoxycarbonyl)-α-methylcinnamic Acid N-allyl-N-ethoxycarbonylmethylamide Acetate] | 5 nM | IC50 [1]: 160 nM
C#CCN(CC(=O)OCC)C(=O)/C(C)=C/c1ccc(C(=O)Oc2ccc(C(=N)N)cc2)cc1 [Acetate of compound 18, p-(p-amidinophenoxycarbonyl)-α-methylcinnamic acid N-propargyl-N-ethoxycarbonylmethylamide] | 2.39 nM | 
CCCCCCN(CC(=O)OCC)C(=O)/C(C)=C/c1ccc(C(=O)Oc2ccc(C(=N)N)cc2)cc1 [Acetate of compound 22, p-(p-amidlnophenoxycarbonyl)-α-methylcinnamic acid N-ethoxycarbonylmethyl-N-hexylamide] | 0.24 nM | 
C=CCN(CC(=O)OCC)C(=O)/C(C)=C/c1ccc(C(=O)Oc2ccc(C(=N)N)cc2C(=O)OC)cc1 [Acetate of compound 23, p-(4-amidino-2-methoxycarbonylphenoxycarbonyl)-α-methylcinnamic acid N-allyl-N-ethoxycarbonylmethylamide] | 0.46 nM | 
CCOC(=O)CC(CC(=O)OCC)N(C(=O)/C(C)=C/c1ccc(C(=O)Oc2ccc(C(=N)N)cc2)cc1)C1CCCCC1 [Acetate of compound 24] | 1.14 nM | 
CCOC(=O)CN(C(=O)/C=C/c1ccc(C(=O)Oc2ccc(NC(=N)N)cc2)cc1)c1ccccc1 [Hydrochloride of compound 5, p-(p-Guanidinophenoxycarbonyl)cinnamic Acid N-phenyl-N-ethoxycarbonylmethylamide Hydrochloride] |  | IC50 [3]: 8000 nM
CCOC(=O)CN(C(=O)/C(C)=C/c1ccc(C(=O)Oc2ccc(NC(=N)N)cc2)cc1)c1ccccc1 [Hydrochloride of compound 6, p-(p-Guanidinophenoxycarbony) -α-methylcinnamic Acid N-phenyl-N-ethoxycarbonylmethylamide Hydrochloride] |  | IC50 [3]: 5000 nM; IC50 [1]: 110 nM
N=C(N)c1ccc(OC(=O)c2ccc(/C=C/C(=O)N3CCN(Cc4ccccc4)CC3)cc2)cc1 [Hydrochloride of compound 19-2, p-(p-amidinophenoxycarbonyl)cinnamic acid N-(4-phenyl-methyl)piperadinylamide] | 0.21 nM | 
CCOC(=O)CCN(CCCOC)C(=O)/C(C)=C/c1ccc(C(=O)Oc2ccc(C(=N)N)cc2)cc1 [Hydrochloride of compound 25, p-(p-amidinophenoxycarbonyl)-α-methylcinnamic acid N-2-ethoxycarbonylethyl-N-3-methoxypropylamide] | 1.38 nM | 
CCOC(=O)c1ccc(OC(=O)CCCCCNC(=N)N)cc1 [Methanesulfonate of compound 1, p-ethoxycarbonylphenyl 6-guanidinohexanoate] | 30 nM | 
CN(C)C(=O)COC(=O)Cc1ccc(OC(=O)c2ccc(NC(=N)N)cc2)cc1 [Methanesulfonate of compound 2, N,N-ddimethylcarbamoylmethyl p-(p-guanidinobenzoyloxy)phenylacetate] | 4.33 nM | 
N=C(N)Nc1ccc(C(=O)Oc2ccc(CC(=O)O)cc2)cc1 [Methanesulfonate of compound 3, p-(p-guanidinobenzoyloxy)phenylacetic acid] | 52.9 nM | 
CCOC(=O)CN(C(=O)c1ccc(C(=O)Oc2ccc(NC(=N)N)cc2)cc1)c1ccccc1 [Methanesulfonate of compound 14, p-(p-guanidinophenoxycarbonyl)benzoic acid N-phenyl-N-ethoxycarbonylmethylamide] | 11.2 nM | 
N=C(N)Nc1ccc(OC(=O)c2cccc(S(N)(=O)=O)c2)cc1 [Methanesulfonate of compound 15, m-(p-guanidinophenoxycarbonyl)benzenesulfonamide] | 192 nM | 
C=CCN(CC(=O)OCC)C(=O)/C(C)=C/c1ccc(C(=O)Oc2ccc(C(=N)N)cc2)cc1 [Methanesulfonate of compound 16, p-(p-amidinophenoxycarbonyl)-α-methylcinnamic acid N-allyl-N-ethoxycarbonylmethylamide] | 1.4 nM | Amount of hepatic Hydroxypurine [4]: 896.5 ± 686.7 μg/liver; Inhibition ratio (hepatic hydroxypurine) [4]: 58.1%; LD50 [5]: 117 mg/kg
C=CCN(CC(=O)O)C(=O)/C(C)=C/c1ccc(C(=O)Oc2ccc(C(=N)N)cc2)cc1 [Methanesulfonate of compound 17, p-(p-amidinophenoxycarbonyl)-α-methylcinnamic acid N-allyl-N-carboxylmethylamide] | 12.6 nM | Amount of pulmonary Hydroxypurine [6]: 3.774 ± 0.504 μg/lung; Inhibition ratio (pulmonary hydroxypurine) [6]: 40.6%
